# Test results taken from US20030083342A1, “Combination of organic compounds” (priority 2002, published 2003).
# Where two headings read alike, the source gives them in different places.
# What was measured:
# [1] = tested on: response to Ang I; assay: Response to injected Ang I in pretreated Wistar Kyoto rats; assay type: in vivo; conditions: Wistar Kyoto rats pretreated with (+)-fadrozole hydrochloride or valsartan 5 mg/kg/d; comparison of the two pretreatments
# Description: The rats are divided into 5 groups: group 1, control (n=40); Group 2, valsartan (5 mg/kg/d; n=40); Group 3, the (+)-enantiomer of the hydrochloride of fadrozole (n=30); Group 4, a combination of the (+)-enantiomer of the hydrochloride of fadrozole and valsartan (5 mg/kg/d); n=30) and Group 5, valsartan (50 mg/kg/d; n=30). The drugs are administered in drinking fluid.
# [2] = tested on: pressor effect of Ang II; conditions: Ang II at 1 mg/kg, normotensive rats, cited from earlier work
Compound,response to Ang I injected [1],reduction of the pressor effect of Ang II ([2]; valsartan 5 mg/kg/d),reduction of the pressor effect of Ang II ([2]; valsartan 50 mg/kg/d)
Cl.N#Cc1ccc([C@H]2CCCc3cncn32)cc1 [(+)-enantiomer of the hydrochloride of fadrozole],similar,,
"CCCCC(=O)N(Cc1ccc(-c2ccccc2-c2nnn[nH]2)cc1)[C@H](C(=O)O)C(C)C [valsartan, (S)-N-(1-carboxy-2-methylprop-1-yl)-N-pentanoyl-N-[2′(1H-tetrazol-5-yl)biphenyl-4-yl-methyl]amine]",similar,49%,73%
